Activity calls are given as the source filed them. The rule behind the calls is not given here. Square brackets hold non-standard residues; d marks the D form. Peptide text beside a SMILES is read from it. * marks the point of attachment. Pro(trans-4-F) = O=C(O)[C@@H]1C[C@@H](F)CN1; Dansyl = CN(C)c1cccc2c(S(=O)(=O)*)cccc12; Pro(cis-4-F) = O=C(O)[C@@H]1C[C@H](F)CN1; Hyp = O=C(O)[C@@H]1C[C@@H](O)CN1; hPhe = N[C@@H](CCc1ccccc1)C(=O)O; 2Pal = N[C@@H](Cc1ccccn1)C(=O)O; 3Pal = N[C@@H](Cc1cccnc1)C(=O)O; 4Pal = N[C@@H](Cc1ccncc1)C(=O)O; Tic = O=C(O)[C@@H]1Cc2ccccc2CN1; Tle = CC(C)(C)[C@H](N)C(=O)O; Pip = O=C(O)[C@@H]1CCCCN1; Ac5c = NC1(C(=O)O)CCCC1
How the values were obtained:
[1] = target: T1, Peptidyl-prolyl cis-trans isomerase FKBP4 (Homo sapiens, UniProt Q02790); assay: Binding affinity to FKBP52 FK1 domain (1 to 148 residues) (unknown origin) by isothermal calorimetric analysis
T1 sequence (Q02790 whole entry): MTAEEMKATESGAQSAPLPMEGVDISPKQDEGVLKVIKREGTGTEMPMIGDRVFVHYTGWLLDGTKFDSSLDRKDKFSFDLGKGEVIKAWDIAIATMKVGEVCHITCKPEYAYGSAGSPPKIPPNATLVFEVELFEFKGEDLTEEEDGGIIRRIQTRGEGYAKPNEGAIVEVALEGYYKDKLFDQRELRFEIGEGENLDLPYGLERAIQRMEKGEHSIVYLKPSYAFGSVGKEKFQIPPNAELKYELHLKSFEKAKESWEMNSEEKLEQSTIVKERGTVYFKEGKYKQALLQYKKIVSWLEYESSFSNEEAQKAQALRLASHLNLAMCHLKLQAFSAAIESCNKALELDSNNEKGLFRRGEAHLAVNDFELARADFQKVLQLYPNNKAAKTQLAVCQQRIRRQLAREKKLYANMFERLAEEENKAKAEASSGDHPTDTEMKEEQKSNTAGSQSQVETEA

[2] = target: T2, Peptidyl-prolyl cis-trans isomerase FKBP4 (Homo sapiens) (UniProt Q02790); assay: (§1) Binding affinity to FKBP52 FK1 domain (1 to 148 residues) (unknown origin) by Dansyl fluorescence based assay
T2 sequence (whole entry): T1 sequence (Q02790 whole entry)

[3] = target: T1, Peptidyl-prolyl cis-trans isomerase FKBP4; assay: as §1
[4] = target: T2, Peptidyl-prolyl cis-trans isomerase FKBP4 (Homo sapiens); assay: Binding affinity to FKBP52 FK2 domain (167 to 253 residues) (unknown origin) in PBS at 10 uM by Dansyl fluorescence based assay relative to control
[5] = target: T2, Peptidyl-prolyl cis-trans isomerase FKBP4 (Homo sapiens); assay: Binding affinity to FKBP52 FK1 domain (1 to 148 residues) (unknown origin) assessed as increase in fluorescence at 10 uM by Dansyl fluorescence based assay relative to control
[6] = target: T2, Peptidyl-prolyl cis-trans isomerase FKBP4 (Homo sapiens); assay: Binding affinity to FKBP52 FK1 domain (1 to 148 residues) (unknown origin) assessed as blue shift at 10 uM by Dansyl fluorescence based assay
[7] = target: T2, Peptidyl-prolyl cis-trans isomerase FKBP4 (Homo sapiens); assay: Binding affinity to FKBP52 FK1 domain (1 to 148 residues) (unknown origin) in PBS assessed as induction of blue shift by measuring emission wavelength at 10 to 20 uM by fluorimetric analysis (reference value: 560 nm)
[8] = target: T2, Peptidyl-prolyl cis-trans isomerase FKBP4 (Homo sapiens); assay: Binding affinity to FKBP52 FK1 domain (1 to 148 residues) (unknown origin) in PBS at 20 uM in presence of one equivalent FK506 by FRET assay
[9] = target: T2, Peptidyl-prolyl cis-trans isomerase FKBP4 (Homo sapiens); assay: Binding affinity to FKBP52 FK1 domain (1 to 148 residues) (unknown origin) at 10 uM in presence of FK506 by Dansyl fluorescence based assay
[10] = target: T2, Peptidyl-prolyl cis-trans isomerase FKBP4 (Homo sapiens); assay: Binding affinity to FKBP52 FK1 domain (1 to 148 residues) (unknown origin) in PBS assessed as quenching of Trp emission at 10 to 20 uM by fluorimetric analysis
[11] = target: T1, Peptidyl-prolyl cis-trans isomerase FKBP4; assay: Binding affinity to FKBP52 FK1 domain (1 to 148 residues) (unknown origin) in PBS by fluorescence spectroscopy
[12] = target: T2, Peptidyl-prolyl cis-trans isomerase FKBP4 (Homo sapiens); assay: Binding affinity to FKBP52 FK1 domain (1 to 148 residues) (unknown origin) at 10 uM by Dansyl fluorescence based assay
[13] = Solubility of the compound; type: physicochemical

SMILES	Kd [1]	also measured
CN(C)c1cccc2c(S(=O)(=O)N3C[C@@H](F)C[C@H]3C(=O)N[C@@H](CCc3ccccc3)C(=O)N[C@@H](CCCNC(=N)N)C(=O)O)cccc12 (Dansyl-[Pro(cis-4-F)]-[hPhe]-Arg-OH)	1.3 µM	–
CN(C)c1cccc2c(S(=O)(=O)N3C[C@H](O)C[C@H]3C(=O)N[C@@H](CCc3ccccc3)C(=O)N[C@@H](CCCNC(=N)N)C(=O)O)cccc12 (Dansyl-[Hyp]-[hPhe]-Arg-OH)	> 50 µM	–
CCCCN(CC(=O)N[C@@H](CCc1ccccc1)C(=O)N[C@@H](CCCNC(=N)N)C(=O)O)S(=O)(=O)c1cccc2c(N(C)C)cccc12	> 50 µM	–
CN(C)c1cccc2c(S(=O)(=O)N3CCC[C@H]3C(N)=O)cccc12	–	Activity [2]: inactive
CN(C)c1cccc2c(S(=O)(=O)N3CCCC[C@H]3C(=O)N[C@@H](Cc3ccncc3)C(=O)N[C@@H](CCCNC(=N)N)C(=O)O)cccc12 (Dansyl-[Pip]-[4Pal]-Arg-OH)	> 50 µM	–
CN(C)c1cccc2c(S(=O)(=O)N3CCCC[C@H]3C(=O)N[C@@H](Cc3ccccc3)C(=O)N[C@@H](CCCNC(=N)N)C(=O)O)cccc12 (Dansyl-[Pip]-Phe-Arg-OH)	5.8 µM	–
CN(C)c1cccc2c(S(=O)(=O)N3C[C@H](F)C[C@H]3C(=O)N[C@@H](CCc3ccccc3)C(=O)N[C@@H](CCCNC(=N)N)C(=O)O)cccc12 (Dansyl-[Pro(trans-4-F)]-[hPhe]-Arg-OH)	20 µM	–
CN(C)c1cccc2c(S(=O)(=O)N3CCC[C@H]3C(=O)N[C@@H](CCc3ccccc3)C(=O)N[C@@H](CCCNC(=N)N)C(=O)O)cccc12	5 µM	–
CN(C)c1cccc2c(S(=O)(=O)N3Cc4ccccc4C[C@H]3C(=O)N[C@@H](CCc3ccccc3)C(=O)N[C@@H](CCCNC(=N)N)C(=O)O)cccc12 (Dansyl-[Tic]-[hPhe]-Arg-OH)	–	Kd [3]: > 50 µM
CN(C)c1cccc2c(S(=O)(=O)N3[C@H](C(=O)N[C@@H](CCc4ccccc4)C(=O)N[C@@H](CCCNC(=N)N)C(=O)O)CCC3(C)C)cccc12	–	Kd [3]: > 50 µM
CN(C)c1cccc2c(S(=O)(=O)N3CCC[C@@H]3C(=O)N[C@@H](CCc3ccccc3)C(=O)N[C@@H](CCCNC(=N)N)C(=O)O)cccc12	> 50 µM	–
CN(C)c1cccc2c(S(=O)(=O)N3CCCC[C@H]3C(=O)N[C@@H](Cc3c[nH]c4ccccc34)C(=O)N[C@@H](CCCNC(=N)N)C(=O)O)cccc12 (Dansyl-[Pip]-Trp-Arg-OH)	–	Kd [3]: 20 µM
CN(C)c1cccc2c(S(=O)(=O)N3CCCC[C@H]3C(=O)N[C@@H](CCc3ccccc3)C(=O)N[C@@H](CCCNC(=N)N)C(=O)O)cccc12 (Dansyl-[Pip]-[hPhe]-Arg-OH)	1.6 µM	Activity [4]: inactive; fold change (FC) [5]: 4; Activity [6]: 30 nm; Activity [7]: 537 nm; Activity [8]: inactive; Activity [9]: inactive; Activity [10]: 67%; Kd [11]: 4.6 µM
CN(C)c1cccc2c(S(=O)(=O)N3CCCC[C@H]3C(=O)N[C@@H](CCc3ccccc3)C(=O)O)cccc12.O=C(O)C(F)(F)F (Dansyl-[Pip]-[hPhe]-OH)	–	Activity [12]: inactive; solubility [13]: Insoluble

The next lines start with results.

Kd [1]	SMILES	also measured
2.9 µM	CN(C)c1cccc2c(S(=O)(=O)N3CCCC[C@H]3C(=O)N[C@H](C(=O)N[C@@H](CCCNC(=N)N)C(=O)O)C(C)(C)C)cccc12 (Dansyl-[Pip]-[Tle]-Arg-OH)	–
10 µM	CN(C)c1cccc2c(S(=O)(=O)N3CCCC[C@H]3C(=O)NC3(C(=O)N[C@@H](CCCNC(=N)N)C(=O)O)CCCC3)cccc12 (Dansyl-[Pip]-[Ac5c]-Arg-OH)	–
1.1 µM	CN(C)c1cccc2c(S(=O)(=O)N3CCCC[C@H]3C(=O)N3CCCC[C@H]3C(=O)N[C@@H](CCCNC(=N)N)C(=O)O)cccc12 (Dansyl-[Pip]-[Pip]-Arg-OH)	–
3.5 µM	CN(C)c1cccc2c(S(=O)(=O)N3CCCC[C@H]3C(=O)N[C@@H](Cc3ccccn3)C(=O)N[C@@H](CCCNC(=N)N)C(=O)O)cccc12 (Dansyl-[Pip]-[2Pal]-Arg-OH)	–
> 50 µM	CN(C)c1cccc2c(S(=O)(=O)N3CCCC[C@H]3C(=O)N3Cc4ccccc4C[C@H]3C(=O)N[C@@H](CCCNC(=N)N)C(=O)O)cccc12 (Dansyl-[Pip]-[Tic]-Arg-OH)	–
3 µM	CN(C)c1cccc2c(S(=O)(=O)N3CCCC[C@H]3C(=O)N[C@@H](Cc3cccnc3)C(=O)N[C@@H](CCCNC(=N)N)C(=O)O)cccc12 (Dansyl-[Pip]-[3Pal]-Arg-OH)	–

Source: ChEMBL document CHEMBL4619821, “Bioinspired Hybrid Fluorescent Ligands for the FK1 Domain of FKBP52” (J Med Chem, 2020)
